Data: patent US7906480B2, “Use of a parathyroid hormone peptide analogs for the treatment of vaginal atrophy” (priority 2002, dated 2011)
“Also recorded” adds a separate entry of the source. Like-named read-outs stand apart in the source and are kept apart here. No end group written: not given here.

Assays:
PTHPTHrP receptor [1] = biological target: T1, PTHPTHrP receptor (Homo sapiens, UniProt Q03431); settings: cited from earlier work
T1 sequence (Q03431 27-593): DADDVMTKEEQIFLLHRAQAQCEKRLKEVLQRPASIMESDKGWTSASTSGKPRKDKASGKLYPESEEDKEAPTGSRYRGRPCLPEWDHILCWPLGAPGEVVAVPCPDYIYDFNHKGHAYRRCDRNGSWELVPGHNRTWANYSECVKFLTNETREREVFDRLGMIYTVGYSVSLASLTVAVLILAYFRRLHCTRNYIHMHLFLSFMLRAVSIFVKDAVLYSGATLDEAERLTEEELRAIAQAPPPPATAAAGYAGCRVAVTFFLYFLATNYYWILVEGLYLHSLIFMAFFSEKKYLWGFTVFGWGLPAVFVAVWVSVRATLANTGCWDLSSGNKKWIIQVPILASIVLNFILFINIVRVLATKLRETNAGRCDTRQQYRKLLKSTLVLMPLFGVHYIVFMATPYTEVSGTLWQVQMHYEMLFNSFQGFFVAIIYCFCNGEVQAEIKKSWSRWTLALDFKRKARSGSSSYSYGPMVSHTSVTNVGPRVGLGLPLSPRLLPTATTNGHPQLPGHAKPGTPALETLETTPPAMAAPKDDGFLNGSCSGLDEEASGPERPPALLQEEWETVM

[2] = tested on: cultured human keratinocytes; settings: in vitro, previously shown in U.S. Pat. Nos. 5,527,772, 5,840,690 and 6,066,618; cited from earlier work
hPTH-2 receptor = hPTH-2 receptor (Homo sapiens, UniProt P49190); settings: cited from earlier work
Chain of hPTH-2 receptor (P49190 25-550): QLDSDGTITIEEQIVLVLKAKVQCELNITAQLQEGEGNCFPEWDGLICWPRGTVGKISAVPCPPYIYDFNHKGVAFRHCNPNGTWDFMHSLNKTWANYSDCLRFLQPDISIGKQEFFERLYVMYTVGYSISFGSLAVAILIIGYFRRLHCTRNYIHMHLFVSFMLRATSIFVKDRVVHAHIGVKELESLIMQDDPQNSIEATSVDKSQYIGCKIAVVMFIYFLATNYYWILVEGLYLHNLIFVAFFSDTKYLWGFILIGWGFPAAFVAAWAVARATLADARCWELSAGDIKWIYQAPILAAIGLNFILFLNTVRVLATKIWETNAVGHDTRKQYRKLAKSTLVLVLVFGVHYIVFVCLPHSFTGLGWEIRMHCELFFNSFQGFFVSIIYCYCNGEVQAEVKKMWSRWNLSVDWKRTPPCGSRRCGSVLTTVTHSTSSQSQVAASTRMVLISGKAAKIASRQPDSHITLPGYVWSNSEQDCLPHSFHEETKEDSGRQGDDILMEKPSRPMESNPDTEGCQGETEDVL

mouse vaginal cells = test: tritiated thymidine incorporation into DNA of cultured mouse vaginal epithelial cells; assay type: cell-based, SKH-1 hairless mice
Procedure: The vaginas from five SKH-1 hairless mice were harvested, washed, and placed in trypsin 1× overnight. From each, the vaginal epithelium was peeled and rinsed in 0.02% EDTA solution and centrifuged to isolate the cells. The cells were rinsed in media, centrifuged, and plated into a 100 mm dish atop a layer of irradiated 3T3 cells containing media as is used for keratinocytes and described above. The cells were grown and passed into 24 well plates for tritiated thymidine incorporation as described above. Cells were treated with either a placebo vehicle or with 1×10^−7 M PTH(1-34) for 24 hours. The cells were harvested and the DNA was extracted and counted using a beta liquid scintillation counter. The amount of tritiated thymidine recovered in the DNA is a measure of DNA synthesis in the cells and is synonymous with cellular proliferative activity.

PTHPTHrP receptor [3] = biological target: T1, PTHPTHrP receptor; settings: cited from earlier work; remark: listed apart in the source

[Leu^11,D-Trp^12]hPTHrP(7-34),Amide [[Leu^11,D-Trp^12]hPTHrP(7-34)NH2]
antagonist function at the hPTH/PTHrP receptor (PTHPTHrP receptor [1]): highly potent antagonist

[Nle^8,18,Tyr^34]bPTH(7-34),Amide (FXHNLGKHLSSXERVEWLRKKLQDVHNY; norleucine at 8,18; C-terminal amide; Bovine; VARIANT (2)..(12) Xaa = Nle) [[Nle^8,18, Tyr^34]bPTH (7-34)NH2]
block of inhibition of proliferation or stimulation of differentiation by hPTH(1-34), hPTHrP(1-34), or 1,25(OH)2D3 [2]: block the inhibition of proliferation or stimulation of differentiation

[Trp^23]hPTHrP(1-36) (AVSEHQLLHDKGKSIQDLRRRFWLHHLIAEIHTAEI; listed as Homo sapiens) [[Trp^23]hPTHrP (1-36)]
antagonist function at the PTH-2 receptor (hPTH-2 receptor): hPTH-2 receptor antagonist | antagonist function at the PTH-2 receptor (hPTH-2 receptor; listed as [Trp^23]PTHrP(1-36)): particularly potent antagonist

[Tyr^34]bPTH(7-34),Amide (FMHNLGKHLSSMERVEWLRKKLQDVHNY-NH2) [[Tyr^34]bPTH (7-34)NH2]
block of inhibition of proliferation or stimulation of differentiation by hPTH(1-34), hPTHrP(1-34), or 1,25(OH)2D3 [2]: block the inhibition of proliferation or stimulation of differentiation

bPTHrP(5-36) (HQLLHDKGKSIQDLRRRFFLHHLIAEIHTAEI; listed as Homo sapiens) [printed only in b18]
block of inhibition of proliferation or stimulation of differentiation by hPTH(1-34), hPTHrP(1-34), or 1,25(OH)2D3 [2]: block the inhibition of proliferation or stimulation of differentiation

hPTH(1-34) (SVSEIQLMHNLGKHLNSMERVEWLRKKLQDVHNF; listed as Homo sapiens)
incorporation of tritiated thymidine into the DNA (DNA synthesis) (mouse vaginal cells; 1×10^−7 M for 24 hours, versus placebo vehicle, FIG. 1): increased | vaginal cell growth (mouse vaginal cells; conclusion from FIG. 1, mouse vaginal cells in vitro): can stimulate vaginal cell growth; also recorded: can stimulate vaginal cell-growth

hPTH(5-34) (IQLMHNLGKHLNSMERVEWLRKKLQDVHNF; listed as Homo sapiens)
block of inhibition of proliferation or stimulation of differentiation by hPTH(1-34), hPTHrP(1-34), or 1,25(OH)2D3 [2]: block the inhibition of proliferation or stimulation of differentiation

hPTH(5-36) (IQLMHNLGKHLNSMERVEWLRKKLQDVHNFVA; listed as Homo sapiens)
block of inhibition of proliferation or stimulation of differentiation by hPTH(1-34), hPTHrP(1-34), or 1,25(OH)2D3 [2]: block the inhibition of proliferation or stimulation of differentiation

hPTH(7-31) (LMHNLGKHLNSMERVEWLRKKLQDV; listed as Homo sapiens)
block of inhibition of proliferation or stimulation of differentiation by hPTH(1-34), hPTHrP(1-34), or 1,25(OH)2D3 [2]: block the inhibition of proliferation or stimulation of differentiation

hPTH(15-34) (LNSMERVEWLRKKLQDVHNF; listed as Homo sapiens)
block of binding of hPTH(1-34) or hPTHrP(1-34) to the PTHPTHrP receptor (PTHPTHrP receptor [3]): can block the binding

hPTHrP(5-34)
block of inhibition of proliferation or stimulation of differentiation by hPTH(1-34), hPTHrP(1-34), or 1,25(OH)2D3 [2]: block the inhibition of proliferation or stimulation of differentiation

hPTHrP(7-31) (LLHDKGKSIQDLRRRFFLHHLIAEI; listed as Homo sapiens)
block of inhibition of proliferation or stimulation of differentiation by hPTH(1-34), hPTHrP(1-34), or 1,25(OH)2D3 [2]: block the inhibition of proliferation or stimulation of differentiation

hPTHrP(15-34) (IQDLRRRFFLHHLIAEIHTA; listed as Homo sapiens)
block of binding of hPTH(1-34) or hPTHrP(1-34) to the PTHPTHrP receptor (PTHPTHrP receptor [3]): can block the binding
